# Reference: patent US11351178B2, “Selective HDAC6 inhibitors” (ITALFARMACO S.P.A., priority 2017, dated 2022)
# Biological target: T1, recombinant human HDAC6 (Homo sapiens, UniProt Q9UBN7)
# T1 sequence (Q9UBN7 1-1215): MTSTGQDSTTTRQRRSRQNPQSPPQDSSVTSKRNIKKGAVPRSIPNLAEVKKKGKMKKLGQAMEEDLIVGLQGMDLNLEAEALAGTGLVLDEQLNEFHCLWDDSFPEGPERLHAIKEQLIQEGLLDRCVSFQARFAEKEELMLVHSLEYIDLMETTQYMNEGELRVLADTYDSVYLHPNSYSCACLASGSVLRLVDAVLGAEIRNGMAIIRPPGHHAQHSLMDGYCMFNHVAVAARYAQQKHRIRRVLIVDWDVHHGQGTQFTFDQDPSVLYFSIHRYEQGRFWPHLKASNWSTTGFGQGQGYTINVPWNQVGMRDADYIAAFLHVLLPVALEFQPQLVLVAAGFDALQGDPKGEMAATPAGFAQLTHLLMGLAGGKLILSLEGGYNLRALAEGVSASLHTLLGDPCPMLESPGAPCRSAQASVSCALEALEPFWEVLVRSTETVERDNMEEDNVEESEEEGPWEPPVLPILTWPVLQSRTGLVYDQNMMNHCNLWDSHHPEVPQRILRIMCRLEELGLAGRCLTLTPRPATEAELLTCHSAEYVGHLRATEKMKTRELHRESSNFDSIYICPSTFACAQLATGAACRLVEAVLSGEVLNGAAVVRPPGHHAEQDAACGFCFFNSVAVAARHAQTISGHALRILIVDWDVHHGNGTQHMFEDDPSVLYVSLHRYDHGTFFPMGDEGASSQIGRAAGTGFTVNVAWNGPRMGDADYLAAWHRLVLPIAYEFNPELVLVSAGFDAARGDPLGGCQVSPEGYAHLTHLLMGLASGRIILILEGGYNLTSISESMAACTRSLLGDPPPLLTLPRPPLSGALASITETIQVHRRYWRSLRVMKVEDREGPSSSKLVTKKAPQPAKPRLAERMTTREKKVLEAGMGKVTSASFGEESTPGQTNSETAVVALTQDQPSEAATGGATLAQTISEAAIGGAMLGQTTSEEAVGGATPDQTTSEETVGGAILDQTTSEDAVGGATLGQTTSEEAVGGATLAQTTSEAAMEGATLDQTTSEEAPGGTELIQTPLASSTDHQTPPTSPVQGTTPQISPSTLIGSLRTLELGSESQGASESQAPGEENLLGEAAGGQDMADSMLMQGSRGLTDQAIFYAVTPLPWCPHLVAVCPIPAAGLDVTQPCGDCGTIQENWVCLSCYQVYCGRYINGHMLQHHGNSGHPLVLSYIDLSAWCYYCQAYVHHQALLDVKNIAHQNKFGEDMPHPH
# Assay: Enzymatic screening on recombinant human HDAC6
# Format: biochemical
# Details: Table 2; read-out: HDAC6 IC50
# Procedure: Enzymatic activity on recombinant human HDAC6 and HDAC3 was evaluated (Table 2) for each synthesized compound.
# After a period of incubation at 30° C. (incubation times vary for different isoforms and are shown in table 1) 25 μL of solution containing the substrate were added. As substrate, FLUOR DE LYS® deacetylase substrate (Enzo Life Sciences, cat #BML-K1104, FdL), FLUOR DE LYS®-Green substrate (Enzo Life Sciences, cat #BML-K1572 FdL_G) and trifluoroacetyl-L-lysine (Tfal)-2× concentrated solution in 25 mM Tris-HCl, pH 8, 130 mM NaCl 0.05% Tween-20 10% glycerol) were used. Following a reaction period at 30° C.
row,SMILES,IC50 [nM]
1,"COc1ccc(CCC(=O)N[C@@H](Cc2cscn2)c2nc(Cc3ccc(C(=O)NO)cc3)no2)cc1OC [comp. 21, 3-(3,4-dimethoxyphenyl)-N-[(1S)-1-[3-[[4-(hydroxycarbamoyl)phenyl]methyl]-1,2,4-oxadiazol-5-yl]-2-thiazol-4-yl-ethyl]propanamide]",116
2,"O=C(NO)c1ccc(Sc2nnc(-c3ccccc3)n2-c2ccccc2)cc1 [comp. 24, 4-[(4,5-diphenyl-1,2,4-triazol-3-yl)sulfanyl]benzenecarbohydroxamic acid]",56
3,"O=C(NO)c1ccc(Sc2nnc(Cc3ccccc3)n2-c2ccc(F)cc2)cc1 [comp. 27, 4-[[5-benzyl-4-(4-fluorophenyl)-1,2,4-triazol-3-yl]sulfanyl]benzenecarbohydroxamic acid;2,2,2-trifluoroacetic acid]",77
4,"N[C@@H](Cc1cscn1)c1nc(Cc2ccc(C(=O)NO)cc2)no1 [comp. 48, (S)-4-((5-(1-amino-2-(thiazol-4-yl)ethyl)-1,2,4-oxadiazol-3-yl)methyl)-N-hydroxybenzamide 2,2,2-trifluoroacetate]",257
5,"O=C(NO)c1ccc(Cc2nc(-c3cccs3)nn2-c2ccccn2)cc1 [comp. 52, 4-[[2-(2-pyridyl)-5-(2-thienyl)-1,2,4-triazol-3-yl]methyl]benzenecarbohydroxamic acid]",344
6,"O=C(NO)c1ccc(Nc2nnc(-c3ccccc3)o2)cc1 [comp. 60, 4-[(5-phenyl-1,3,4-oxadiazol-2-yl)amino]benzenecarbohydroxamic acid]",136
7,"O=C(NO)c1ccc(Nc2nnc(-c3cccc(S(=O)(=O)N4CCCC4)c3)o2)cc1 [comp. 63, 4-[[5-(3-pyrrolidin-1-ylsulfonylphenyl)-1,3,4-oxadiazol-2-yl]amino]benzenecarbohydroxamic acid]",682
8,"O=C(NO)c1ccc(Cc2nnc(-c3cccc(S(=O)(=O)N4CCOCC4)c3)o2)cc1 [comp. 64, 4-[[5-(3-morpholinosulfonylphenyl)-1,3,4-oxadiazol-2-yl]methyl]benzenecarbohydroxamic acid]",13
9,"O=C(NO)c1ccc(Cc2nnc(-c3ccc(S(=O)(=O)N4CCCC4)cc3)o2)cc1 [comp. 69, 4-[[5-(4-pyrrolidin-1-ylsulfonylphenyl)-1,3,4-oxadiazol-2-yl]methyl]benzenecarbohydroxamic acid]",11
10,"O=C(NO)c1ccc(Sc2nc(C3CC3)n(-c3ccccc3)n2)cc1 [comp. 72, 4-[(5-cyclopropyl-1-phenyl-1,2,4-triazol-3-yl)sulfanyl]benzenecarbohydroxamic acid]",162
11,"O=C(NO)c1cc(F)c(Sc2nnc(-c3cccs3)[nH]2)c(F)c1 [comp. 97, 3,5-difluoro-4-[[5-(2-thienyl)-4H-1,2,4-triazol-3-yl]sulfanyl]benzenecarbohydroxamic acid]",51
12,"O=C(NO)c1cc(F)c(Cn2nnc(-c3cccc(S(F)(F)(F)(F)F)c3)n2)c(F)c1 [comp. 108, 3,5-difluoro-4-[[5-[3-(pentafluoro-lambda6-sulfanyl)phenyl]tetrazol-2-yl]methyl]benzenecarbohydroxamic acid]",108
13,"O=C(NO)c1cc(F)c(Cn2nnnc2-c2ccc(S(F)(F)(F)(F)F)cc2)c(F)c1 [comp. 113, 3,5-difluoro-4-[[5-[4-(pentafluoro-lambda6-sulfanyl)phenyl]tetrazol-1-yl]methyl]benzenecarbohydroxamic acid]",158
14,"Cn1c(Sc2c(F)cc(C(=O)NO)cc2F)nnc1-c1cccc(N2CC[N+](C)([O-])CC2)c1 [comp. 114, 3,5-difluoro-4-[[4-methyl-5-[3-(4-methyl-4-oxido-piperazin-4-ium-1-yl)phenyl]-1,2,4-triazol-3-yl]sulfanyl]benzenecarbohydroxamic acid]",256

# Continued, values first:
row,IC50 [nM],SMILES
1,258,"COc1ccc(Cc2nnc(-c3ccc(C(=O)NO)cc3)o2)cc1OC [comp. 26, 4-[5-[(3,4-dimethoxyphenyl)methyl]-1,3,4-oxadiazol-2-yl]benzenecarbohydroxamic acid]"
2,6,"O=C(NO)c1ccc(Cn2nnc(-c3ccc(Cl)s3)n2)cc1 [comp. 32, 4-[[5-(5-chloro-2-thienyl)tetrazol-2-yl]methyl]benzenecarbohydroxamic acid]"
3,7,"O=C(NO)c1ccc(Cn2nnc(-c3ccc(F)cc3)n2)cc1 [comp. 34, 4-[[5-(4-fluorophenyl)tetrazol-2-yl]methyl]benzenecarbohydroxamic acid]"
4,5,"COc1ccc(-c2nnn(Cc3ccc(C(=O)NO)cc3)n2)cc1 [comp. 35, 4-[[5-(4-methoxyphenyl)tetrazol-2-yl]methyl]benzenecarbohydroxamic acid]"
5,4,"Cc1ccc(-c2nnn(Cc3ccc(C(=O)NO)cc3)n2)s1 [comp. 41, 4-[[5-(5-methyl-2-thienyl)tetrazol-2-yl]methyl]benzenecarbohydroxamic acid]"
6,3,"O=C(NO)c1ccc(Cn2nnc(-c3scc4c3OCCO4)n2)cc1 [comp. 43, 4-[[5-(2,3-dihydrothieno[3,4-b][1,4]dioxin-5-yl)tetrazol-2-yl]methyl]benzenecarbohydroxamic acid]"
7,5,"O=C(NO)c1ccc(Cn2nnc(-c3ccccc3F)n2)cc1 [comp. 46, 4-[[5-(2-fluorophenyl)tetrazol-2-yl]methyl]benzenecarbohydroxamic acid]"
8,368,"O=C(NO)c1ccc(Cc2nc(-c3ccc(Cl)cc3)nn2Cc2ccccc2)cc1 [comp. 51, 4-[[2-benzyl-5-(4-chlorophenyl)-1,2,4-triazol-3-yl]methyl]benzenecarbohydroxamic acid]"
9,333,"COc1ccccc1-n1nc(-c2cccs2)nc1Cc1ccc(C(=O)NO)cc1 [comp. 53, 4-[[2-(2-methoxyphenyl)-5-(2-thienyl)-1,2,4-triazol-3-yl]methyl]benzenecarbohydroxamic acid]"
10,8,"CN(C)c1ccc(-c2nnc(Sc3ccc(C(=O)NO)cc3)n2C)cc1 [comp. 73, 4-[[5-[4-(dimethylamino)phenyl]-4-methyl-1,2,4-triazol-3-yl]sulfanyl]benzenecarbohydroxamic acid]"
11,39,"O=C(NO)c1ccc(Cn2nnnc2-c2ccco2)cc1 [comp. 86, 4-[[5-(2-furyl)tetrazol-1-yl]methyl]benzenecarbohydroxamic acid]"
12,2,"O=C(NO)c1ccc(Cn2nnnc2-c2nccc3ccccc23)cc1 [comp. 88, 4-[[5-(1-isoquinolyl)tetrazol-1-yl]methyl]benzenecarbohydroxamic acid]"
13,20,"O=C(NO)c1ccc(Cn2nnc(-c3ccc4ccccc4n3)n2)cc1 [comp. 90, 4-[[5-(2-quinolyl)tetrazol-2-yl]methyl]benzenecarbohydroxamic acid]"
14,26,"O=C(NO)c1ccc(Cn2nnc(-c3cccc(S(F)(F)(F)(F)F)c3)n2)cc1 [comp. 106, 4-[[5-[3-(pentafluoro-lambda6-sulfanyl)phenyl]tetrazol-2-yl]methyl]benzenecarbohydroxamic acid]"
15,162,"O=C(NO)c1ccc(Cn2nnnc2-c2cccc(S(F)(F)(F)(F)F)c2)cc1 [comp. 107, 4-[[5-[3-(pentafluoro-lambda6-sulfanyl)phenyl]tetrazol-1-yl]methyl]benzenecarbohydroxamic acid]"
16,271,"O=C(NO)c1ccc(Cn2nnnc2-c2ccc(S(F)(F)(F)(F)F)cc2)cc1 [comp. 111, 4-[[5-[4-(pentafluoro-lambda6-sulfanyl)phenyl]tetrazol-1-yl]methyl]benzenecarbohydroxamic acid]"
17,123,"O=C(NO)c1cc(F)c(Cn2nnc(-c3ccc(S(F)(F)(F)(F)F)cc3)n2)c(F)c1 [comp. 112, 3,5-difluoro-4-[[5-[4-(pentafluoro-lambda6-sulfanyl)phenyl]tetrazol-2-yl]methyl]benzenecarbohydroxamic acid]"
